Measured values: US12409159B2, “3-hydroxybutyrate alone or in combination for use in the treatment of critical care treatment” (KATHOLIEKE UNIVERSITEIT LEUVEN, priority 2016, dated 2025)
Structures can show the parent of a compound that is named as a salt.

What was measured:
[1] = test system: mouse model of prolonged critical illness evoked by sepsis (cecal ligation and puncture); assay: Muscle wasting: weight of isolated skeletal muscles (EDL, tibialis anterior) in prolonged critically ill mice; type: in vivo; settings: Example 7, first experiment, fasted critically ill mice
Protocol: To control for potential illness- or resuscitation-related changes in fluid content, dry weight of isolated tissues was obtained by a freeze-drying process. Myofiber cross-sectional area (CSA) was quantified on digital microscopy images of hematoxylin and eosin stained paraffin sections with in-house designed algorithms. In addition, the presence of myofiber degeneration, necrosis and inflammation was histologically evaluated. Triglyceride content of tissues was determined with a commercial colorimetric assay (triglyceride quantification kit, Abcam, Cambridge, UK).
(§1) We studied the effect of subcutaneous administration of D,L-3-hydroxybutyrate sodium salt on muscle wasting and weakness in a validated mouse model of prolonged critical illness evoked by sepsis (cecal ligation and puncture followed by resuscitation and intensive medical care). The intervention was studied in the parenterally fed and in the fasted state.
Muscle wasting was evaluated by quantification of the dry weight of isolated skeletal muscles. Muscle weight of the EDL muscle decreased in all critically ill mice, irrespective of hydroxybutyrate treatment or nutritional regime (1.9±0.3 mg for PN, 2.1±0.3 mg for PN+3HB, and 2.0±0.4 mg for fasting+3HB as compared with 2.7±0.3 mg in healthy control mice; p<0.0001) (FIG. 11A). […]
(§2) Muscle mass and function was quantified in isolated extensor digitorum longus (EDL) muscle. […]

[2] = test system: mouse model of prolonged critical illness evoked by sepsis (cecal ligation and puncture); assay: Ex vivo force measurement of isolated extensor digitorum longus (EDL) muscle, mouse model of prolonged critical illness evoked by sepsis; type: in vivo, mice
From the text: Mice experiment 2: We examined muscle force ex vivo in lean and diet-induced obese CLP mice. […] Mice were randomly allocated to “healthy control” or “CLP.” As in experiment 1 we had observed that muscle wasting occurred irrespective of feeding, we now only compared parenterally fed with pair-fed lean (n=17) and obese (n=15) healthy mice. Until day 5, 15/18 lean and 15/18 obese CLP mice survived. After 5 days, animals were deeply anesthetized and the m. extensor digitorum longus (EDL) was carefully dissected from both hind limbs for ex vivo muscle force measurements.
as §1
Muscle function was quantified in isolated extensor digitorum longus (EDL) muscle. Critical illness in parenterally fed mice (PN) reduced the absolute maximal force generated by EDL to 57% of healthy controls (p<0.0001) (FIG. 9). […]
as §2

[3] = test system: mouse model of prolonged critical illness evoked by sepsis (cecal ligation and puncture); assay: 5-day mortality in prolonged critically ill mice; type: in vivo
From the text: FIG. 10. Effect of 3-hydroxybutyrate injections on 5-day mortality in prolonged critically ill mice. Black line, healthy control mice (15/15 survivors); gray line, parenterally fed critically ill mice (17/20 survivors); dash dot line; parenterally fed critically ill mice receiving 3-hydroxybutyrate (17/21 survivors); dotted line, fasted critically ill mice receiving 3-hydroxybutyrate (14/22 survivors). [PN=parenteral nutrition; 3HB=3-hydroxybutyrate].
as §1
Muscle function was quantified in isolated extensor digitorum longus (EDL) muscle. Critical illness in parenterally fed mice (PN) reduced the absolute maximal force generated by EDL to 57% of healthy controls (p<0.0001) (FIG. 9). However, when parenterally fed critically ill mice received subcutaneous twice daily a bolus of 75 mg of D,L-3-hydroxybutyrate sodium salt (PN+3HB), maximal muscle force improved dramatically to 83% of healthy controls (p<0.0001) (FIG. 9).

CC(O)CC(=O)O (racemic) [D,L-3-hydroxybutyrate sodium salt]
dry weight of the EDL muscle ([1]; healthy controls 2.7±0.3 mg): 2.0 ± 0.4 mg
dry weight of the tibialis anterior muscle ([1]; healthy controls 12.4±1.3 mg): 8.4 ± 1.8 mg
absolute maximal force generated by EDL, % of healthy controls ([2]; Example 7, first experiment, fasted critically ill mice (survivors), 3HB 75 mg subcutaneous bolus twice daily): 33%
effect on muscle weakness and muscle wasting (conclusion) ([2]; daily supplementation to parenterally fed mice, prolonged sepsis-induced critical illness): largely prevented muscle weakness but not muscle wasting
5-day survivors ([3]; fasted critically ill mice): 14/22
risk of death ([3]; fasted critically ill mice, 3HB 75 mg boluses twice daily): increased risk of death
5-day survivors ([3]; parenterally fed critically ill mice): 17/21
